Settings: Rate of evaporation

CCn1cc[n+](C)c1.COS(=O)(=O)[O-] [1-ethyl-3-methylimidazolium methylsulfate]
Liquid
Settings	vapor or sublimation pressure [kPa]
408.15 K	6.75e-09
410.15 K	8.27e-09
413.15 K	1.12e-08
416.15 K	1.5e-08
420.15 K	2.21e-08
424.15 K	3.24e-08
428.15 K	4.7e-08
432.15 K	6.79e-08
436.15 K	9.72e-08
440.15 K	1.38e-07
444.15 K	1.96e-07
448.15 K	2.75e-07

c1ccc2cc3ccccc3cc2c1 [anthracene]
Crystal
Settings	vapor or sublimation pressure [kPa]
284.15 K	1.79e-07
289.15 K	3.52e-07
294.15 K	6.77e-07
299.15 K	1.27e-06
304.15 K	2.35e-06
309.15 K	4.25e-06
314.15 K	7.54e-06
319.15 K	1.31e-05
324.15 K	2.25e-05
329.15 K	3.79e-05
334.15 K	6.29e-05
339.15 K	0.000103
344.15 K	0.000166
349.15 K	0.000263
354.15 K	0.000413
359.15 K	0.00064
364.15 K	0.000979
369.15 K	0.00148
374.15 K	0.00222
379.15 K	0.00328
384.15 K	0.00481
389.15 K	0.00698
394.15 K	0.01
399.15 K	0.0143
404.15 K	0.0202
409.15 K	0.0283
414.15 K	0.0393
419.15 K	0.0541
424.15 K	0.0741
429.15 K	0.101
434.15 K	0.136
439.15 K	0.182
444.15 K	0.242
449.15 K	0.319
454.15 K	0.42
459.15 K	0.548
464.15 K	0.712
469.15 K	0.919
474.15 K	1.18
479.15 K	1.51
484.15 K	1.92
489.15 K	2.42
494.15 K	3.05
499.15 K	3.83
504.15 K	4.77
509.15 K	5.93

CCn1cc[n+](C)c1.O=S(=O)([N-]S(=O)(=O)C(F)(F)F)C(F)(F)F
Liquid
Settings	vapor or sublimation pressure [kPa]
363.13 K	1.75e-09
368.13 K	2.95e-09
373.13 K	4.91e-09
378.13 K	8.06e-09
383.13 K	1.31e-08
388.13 K	2.09e-08
393.13 K	3.31e-08
398.13 K	5.18e-08
403.13 K	8.01e-08
408.13 K	1.23e-07
413.13 K	1.86e-07
418.13 K	2.78e-07
423.13 K	4.14e-07
428.13 K	6.09e-07
433.13 K	8.88e-07
438.13 K	1.28e-06
443.13 K	1.84e-06
448.13 K	2.62e-06
453.13 K	3.7e-06
458.13 K	5.18e-06
463.13 K	7.2e-06
468.13 K	9.95e-06
473.13 K	1.36e-05
538.13 K	0.00129
543.13 K	0.00168
548.13 K	0.00216
553.13 K	0.00277
558.13 K	0.00355
563.13 K	0.00451
568.13 K	0.00572
573.13 K	0.00722
578.13 K	0.00907
583.13 K	0.0114
588.13 K	0.0142
593.13 K	0.0176
598.13 K	0.0218
603.13 K	0.0269
608.13 K	0.0331
613.13 K	0.0405
618.13 K	0.0495
623.13 K	0.0602
628.13 K	0.0731
633.13 K	0.0885
638.13 K	0.107
643.13 K	0.128
648.13 K	0.154
653.13 K	0.184
658.13 K	0.22
663.13 K	0.261
668.13 K	0.31
673.13 K	0.367
678.13 K	0.433
683.13 K	0.51
688.13 K	0.599
693.13 K	0.703
698.13 K	0.822
703.13 K	0.959
708.13 K	1.12
713.13 K	1.3
718.13 K	1.5
723.13 K	1.74

CCCCCCCCCCCC [dodecane]
Liquid
Settings	vapor or sublimation pressure [kPa]
284.15 K	0.00421
289.15 K	0.00646
294.15 K	0.00978
299.15 K	0.0146
304.15 K	0.0215
309.15 K	0.0312
314.15 K	0.0449
319.15 K	0.0638
324.15 K	0.0897
329.15 K	0.125
334.15 K	0.172
339.15 K	0.234
344.15 K	0.317
349.15 K	0.425
354.15 K	0.565
359.15 K	0.746
364.15 K	0.976
369.15 K	1.27
374.15 K	1.64
379.15 K	2.1
384.15 K	2.67
389.15 K	3.38
394.15 K	4.25
399.15 K	5.32
404.15 K	6.62
409.15 K	8.19
414.15 K	10.1
419.15 K	12.4
424.15 K	15.1
429.15 K	18.3
434.15 K	22.1
439.15 K	26.6
444.15 K	31.8
449.15 K	38
454.15 K	45.1
459.15 K	53.4
464.15 K	63
469.15 K	74.1
474.15 K	86.8
479.15 K	101
484.15 K	118
489.15 K	137
494.15 K	158
499.15 K	183
504.15 K	210
509.15 K	241

CCCCCCCCCCCCCCCC [hexadecane]
Liquid
Settings	vapor or sublimation pressure [kPa]
284.15 K	6.01e-05
289.15 K	0.000102
294.15 K	0.000168
299.15 K	0.000274
304.15 K	0.00044
309.15 K	0.000696
314.15 K	0.00108
319.15 K	0.00166
324.15 K	0.00252
329.15 K	0.00377
334.15 K	0.00558
339.15 K	0.00816
344.15 K	0.0118
349.15 K	0.0169
354.15 K	0.0239
359.15 K	0.0335
364.15 K	0.0465
369.15 K	0.0641
374.15 K	0.0875
379.15 K	0.119
384.15 K	0.159
389.15 K	0.212
394.15 K	0.281
399.15 K	0.369
404.15 K	0.482
409.15 K	0.626
414.15 K	0.806
419.15 K	1.03
424.15 K	1.32
429.15 K	1.67
434.15 K	2.1
439.15 K	2.63
444.15 K	3.28
449.15 K	4.07
454.15 K	5.02
459.15 K	6.18
464.15 K	7.56
469.15 K	9.21
474.15 K	11.2
479.15 K	13.5
484.15 K	16.3
489.15 K	19.5
494.15 K	23.3
499.15 K	27.7
504.15 K	32.9
509.15 K	38.9

Source: the NIST ThermoML archive (doi:10.1016/j.tca.2015.03.020)
